Assay results taken from patent publication US20110118337A1, “Method of Using Compositions Comprising MIR-192 and/or MIR-215 for the Treatment of Cancer” (Merck Sharp & Dohme Corp., priority 2008, published 2011).
“And” between values parts separate entries of the source, which are not always exact repeats. Equal entries are not always repeated.

Assays:
[1] = tested on: miR-192 target transcripts; test: Down-regulation of miR-192 target transcripts; assay type: cell-based
HCT116DICER^ex5 cells [2] = test: Cell cycle distribution by propidium iodide FACS after miR-192 duplex transfection (untreated, nocodazole or aphidicolin); assay type: cell-based, human; settings: for % Cells with 2N (G1/S) / % Cells with 4N (G2/M): 10 nM duplex, 66 hours after transfection
Method: At 48 hours post transfection, cells were left untreated, treated with nocodazole (100 ng/mL, Sigma-Aldrich), or treated with aphidicolin (2 μg/mL, Sigma-Aldrich) for an additional 18 hours before harvesting. The cells were then trypsinized, collected, fixed and stained with a propidium iodide solution. BrdU-labeling was performed according to the manufacturer's instructions (BD-Pharmigen). For phospho-histone H3 analysis, cells were fixed and permeabilized with IPF buffer (100 mM PIPES pH 6.8, 10 mM EDTA, 1 mM MgCl2, 0.2% Triton X-100, 4% formaldehyde) and stained with propidium iodide and anti-phospho-histone H3 antibody conjugated to Alexa-488 (Cell Signaling Technology). The cells were analyzed using a FACSCalibur flow cytometer (Beacton Dickinson) and FlowJo software (Tree Star, Inc.).

[3] = tested on: 3′ UTRs of the 18 candidate genes in U-2-OS cells; test: 3′ UTR luciferase reporter analysis; assay type: cell-based; settings: 10 nM, 24 hours post-transfection
Text: In order to test whether miR-192 is regulating these genes through seed sequence-specific recognition of binding sites within their 3' UTRs, a series of reporter constructs were generated containing the entire natural 3' UTRs of the 18 candidate genes (BCL2, CDC7, CUL5, DLG5, DTL, ERCC3, HOXA10, HRH1, LMNB2, MAD2L1, MCM10, MIS12, MPHOSPH1, PIM1, PRPF38A, […]1, SEPT10 and SMARCB1) inserted downstream of a luciferase open reading frame (SwitchGear Genomics) to create 3' UTR luciferase reporter plasmids. U-2-OS cells were transfected first with 10 nM miR-192 or 10 nM miR-192 mutant, and subsequently transfected 4 to 6 hours later with these 3' UTR reporter plasmids. A renilla luciferase expression plasmid from dual luciferase system (Promega) was used as an internal control. Luciferase activity was measured at 24 hours post-transfection, and quantified relative to renilla luciferase activity.

[4] = tested on: 18 candidate downstream targets of miR-192/miR-215 in U-2-OS cells; test: Transcript abundance of target genes by quantitative PCR (Taqman); assay type: cell-based; settings: 10 nM, 10 hours following transfection, relative to luciferase siRNA or miR-192 seed region mutant
Method: To further confirm that the candidate genes shown in TABLE 7 and TABLE 8 are direct downstream targets of miR-192/miR-215, miR-192 siRNA (10 nM) synthetic duplexes, miR-192 mutant (10 nM) or 10 nM siRNA against luciferase were transfected into the cell line U-2-OS, an osteosarcoma cell line that has wild-type DICER function and a relatively low endogenous level of miR-192/miR-215.
RNA was isolated at 10 hours post-transfection and transcript abundance of the target genes shown in TABLE 7 and TABLE 8 was measured by quantitative PCR. Transcript abundance was measured by Taqman gene expression assay (Applied Biosystems) using hGUS as an internal control. Levels of transcripts were quantified using an ABI Prism 7900HT sequence detection system.

HCT116DICER^ex5 cells [5] = test: Cell cycle FACS analysis of siRNAs against top G1 and G2 arrest genes (nocodazole or aphidicolin); assay type: cell-based, human; settings: 10 mM miR-192
Method: Of the 62 genes shown above in TABLE 6, the 10 genes whose targeting by siRNA caused the largest percentage of cells to arrest in G1, listed below in TABLE 7, were transfected into HCT116DICER^ex5 cells in another experiment as follows.
HCT116DICER^ex5 cells were transfected with […] miR-192 or 100 nM siRNA against luciferase, or 100 nM siRNA (one siRNA duplex of the pool of three) against the putative miR-192 target of interest, as indicated in TABLES 7 and 8. At 48 hours post transfection, cells were treated with nocodazole or aphicicolin for an additional 18 hours prior to FACS analysis. The results for the nocodazole treated cells (% of cells in G1) are provided in TABLE 7, and graphically illustrated in FIG. 3A. The results for the aphidicolin treated cells (% of cells in G2) are provided in TABLE 8 and graphically illustrated in FIG. 3B.

HCT116DICER^ex5 cells [6] = test: Transfection of siRNA pools (G1 or G2 gene set) at suboptimal levels, cell cycle FACS analysis (nocodazole or aphidicolin); assay type: cell-based, human; settings: 10 nM; for % G1 / % G2: 66 hours post transfection
Method: […] At 48 hours post-transfection into HCT116DICER^ex5 cells, the cells were treated with nocodazole for an additional 18 hours prior to FACS analysis.
[…] At 48 hours post-transfection into HCT116DICER^ex5 cells, the cells were treated with aphidicolin for an additional 18 hours prior to FACS analysis.

[7] = compared with mock or mutant miR-192-transfected cells

Which “down-regulation of target transcripts” value [1] does the source give for “miR-192: Synthetic duplex mimetic of miR-192, guide CUGACCUAUGAAUUGACAGCC (SEQ ID NO:1), passenger SEQ ID NO:7 (sense CUGUCAAUUCAUCGGUCUGAU; listed as RNA, chemistry not given here; listed as Homo sapiens)” here?
Its value is 30-40%.

And the “% Cells with 2N (G1/S)” value (HCT116DICER^ex5 cells [2]; aphidicolin 2 μg/mL 18 hours)?
The value was 46.3%.

What about the “% Cells with 4N (G2/M)” value (HCT116DICER^ex5 cells [2]; aphidicolin 2 μg/mL 18 hours) of the same substance?
Its value is 47.4%.

What about the G2/M phase population (HCT116DICER^ex5 cells [2]; [7]) of the same substance?
Its G2/M phase population is “increase”.

What about the S phase population (HCT116DICER^ex5 cells [2]; [7]) of the same substance?
The S phase population was “significant decrease”.

What about the “% Cells with 2N (G1/S)” value (HCT116DICER^ex5 cells [2]; nocodazole 100 ng/mL 18 hours) of the same substance?
Its value is 36% and 36.3%.

What about the “% Cells with 4N (G2/M)” value (HCT116DICER^ex5 cells [2]; nocodazole 100 ng/mL 18 hours) of the same substance?
The value was 56.5%.

What about the “accumulation in the G2/M phase” value (HCT116DICER^ex5 cells [2]; treated with aphidicolin) of the same substance?
The value was “a significant fraction”.

What about the “% Cells with 2N (G1/S)” value (HCT116DICER^ex5 cells [2]; untreated) of the same substance?
Its value is 48.6%.

And the “% Cells with 4N (G2/M)” value (HCT116DICER^ex5 cells [2]; untreated)?
Its value is 44.6%.

And the “regulation of 3′ UTR luciferase reporters of the 18 genes” value [3]?
The value was “regulated”.

And the “candidate gene transcript levels” value [4]?
Its value is “decrease”.

And the “% Cells in G2” value (HCT116DICER^ex5 cells [5]; aphidicolin 18 hours from 48 hours post transfection)?
The value was 42.3%.

What about the “% Cells in G1” value (HCT116DICER^ex5 cells [5]; nocodazole 18 hours from 48 hours post transfection) of the same substance?
The value was 37.9%.

What about the “% G1” value (HCT116DICER^ex5 cells [6]; after aphidicolin treatment) of the same substance?
The value was 50.4%.

What about the “% G2” value (HCT116DICER^ex5 cells [6]; after aphidicolin treatment) of the same substance?
Its value is 44.7%.

And the G2 arrest phenotype (HCT116DICER^ex5 cells [6]; aphidicolin)?
Its G2 arrest phenotype is “induced a G2-arrest phenotype”.

And the G1 arrest phenotype (HCT116DICER^ex5 cells [6]; nocodazole)?
Its G1 arrest phenotype is “induced a G1-arrest phenotype”.

What about the “% G1” value (HCT116DICER^ex5 cells [6]; nocodazole) of the same substance?
Its value is 43.9%.

And the “% G2” value (HCT116DICER^ex5 cells [6]; nocodazole)?
Its value is 53.6%.
